Measurements as given in ChEMBL document CHEMBL1201862, “PubChem BioAssay data set” (2004).
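1) Cells in 96-well plates. 2) Compound, 48 h, 5 concentrations. 3) Linear interpolation between surrounding doses. 4) Unreached endpoint = highest concentration. GI50 marks 50% less growth.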 The source made the active and inactive calls. Rule as the data show it: active = GI50 up to about 1.1 µM and inactive = higher.

What was measured:
Experiment in all cases: DTP human tumour cell line panel, 48 h
[1] = system: A498
[2] = system: ACHN
[3] = system: CCRF-CEM
[4] = system: Hs-578T
[5] = system: KM12
[6] = system: M14
[7] = system: MDA-MB-435
[8] = system: MOLT-4
[9] = system: OVCAR-4
[10] = system: OVCAR-5
[11] = system: OVCAR-8
[12] = system: RXF 393
[13] = system: SK-MEL-2
[14] = system: SK-OV-3
[15] = system: SN12C
[16] = system: U-251
[17] = system: UO-31
[18] = system: HCC 2998
[19] = system: SR

| Compound | GI50 [1] | GI50 [2] | GI50 [3] | GI50 [4] | GI50 [5] | GI50 [6] | GI50 [7] | GI50 [8] | GI50 [9] | GI50 [10] | GI50 [11] | GI50 [12] | GI50 [13] | GI50 [14] | GI50 [15] | GI50 [16] | GI50 [17] | GI50 [18] | GI50 [19] |
| --- | --- | --- | --- | --- | --- | --- | --- | --- | --- | --- | --- | --- | --- | --- | --- | --- | --- | --- | --- |
| Clc1ccc(/C=C/c2nc(Cl)c(-c3ccc(Cl)cc3)c(Cl)n2)cc1 | 50.6 µM (inactive) | 35.2 µM (inactive) | 20.4 µM (inactive) | > 100 µM (inactive) | > 100 µM (inactive) | 29.7 µM (inactive) | 53.2 µM (inactive) | 32.5 µM (inactive) | 71.6 µM (inactive) | > 100 µM (inactive) | > 100 µM (inactive) | 53.8 µM (inactive) | 25.6 µM (inactive) | > 100 µM (inactive) | 89.9 µM (inactive) | 40.6 µM (inactive) | 13.6 µM (inactive) | – | – |
| Nc1nc2c(ncn2Cc2ccccc2CCO)c(=O)[nH]1 | > 100 µM (inactive) | > 100 µM (inactive) | > 100 µM (inactive) | – | > 100 µM (inactive) | > 100 µM (inactive) | – | > 100 µM (inactive) | > 100 µM (inactive) | > 100 µM (inactive) | > 100 µM (inactive) | > 100 µM (inactive) | > 100 µM (inactive) | > 100 µM (inactive) | > 100 µM (inactive) | > 100 µM (inactive) | > 100 µM (inactive) | > 100 µM (inactive) | – |
| CCNC1=C(NC(=O)CC)C(=O)c2ccccc2C1=O | – | > 100 µM (inactive) | 56 µM (inactive) | > 100 µM (inactive) | > 100 µM (inactive) | 31.7 µM (inactive) | > 10 µM (inactive) | > 100 µM (inactive) | 87.3 µM (inactive) | > 100 µM (inactive) | 79.1 µM (inactive) | 48.1 µM (inactive) | – | > 100 µM (inactive) | 73.3 µM (inactive) | > 100 µM (inactive) | – | 73.1 µM (inactive) | > 100 µM (inactive) |
| O=S(=O)(c1ccc(NC(=S)N/N=C/c2ccccc2O)cc1)N1CCCCC1 | 0.264 µM (active) | < 0.01 µM (active) | < 0.023 µM (active) | 1.91 µM (inactive) | – | 0.0771 µM (active) | 0.302 µM (active) | – | – | 0.269 µM (active) | – | 56.8 µM (inactive) | 0.459 µM (active) | 0.39 µM (active) | – | – | 1.29 µM (inactive) | – | – |
| CN(CCO)CCCC1COc2ccccc2O1 (centres undefined) | – | 63.8 µM (inactive) | > 100 µM (inactive) | – | – | > 100 µM (inactive) | – | > 100 µM (inactive) | > 100 µM (inactive) | > 100 µM (inactive) | > 100 µM (inactive) | > 100 µM (inactive) | – | > 100 µM (inactive) | > 100 µM (inactive) | > 100 µM (inactive) | > 100 µM (inactive) | > 100 µM (inactive) | > 100 µM (inactive) |
| COC1(CCO)CC=CCC1(CCO)OC (centres undefined) | – | > 100 µM (inactive) | > 100 µM (inactive) | > 100 µM (inactive) | > 100 µM (inactive) | > 100 µM (inactive) | – | > 100 µM (inactive) | > 100 µM (inactive) | > 100 µM (inactive) | > 100 µM (inactive) | – | > 100 µM (inactive) | > 100 µM (inactive) | > 100 µM (inactive) | – | > 100 µM (inactive) | – | – |
| O/N=N\c1nc(-c2ccccn2)nc2ccccc12 | 32.4 µM (inactive) | 2.14 µM (inactive) | 0.441 µM (active) | > 100 µM (inactive) | 20.6 µM (inactive) | 4.09 µM (inactive) | – | 0.373 µM (active) | 8.05 µM (inactive) | 27.1 µM (inactive) | 12.4 µM (inactive) | – | 4.68 µM (inactive) | 55.5 µM (inactive) | 23 µM (inactive) | 17.5 µM (inactive) | 18.7 µM (inactive) | 9.71 µM (inactive) | 2.38 µM (inactive) |
| COc1c(Br)cc(/C=C(\C#N)c2cccnc2)cc1Br | – | 93.3 µM (inactive) | > 100 µM (inactive) | – | 33.1 µM (inactive) | 43.4 µM (inactive) | – | 49.1 µM (inactive) | 81.5 µM (inactive) | 30.3 µM (inactive) | 53.8 µM (inactive) | 51.5 µM (inactive) | 96.6 µM (inactive) | 56.9 µM (inactive) | > 100 µM (inactive) | 36.3 µM (inactive) | > 100 µM (inactive) | 48 µM (inactive) | 29.5 µM (inactive) |
| COC(CCC[N+](C)(C)C)CC[N+](C)(C)C (centres undefined) | – | > 100 µM (inactive) | > 100 µM (inactive) | – | – | > 100 µM (inactive) | – | > 100 µM (inactive) | > 100 µM (inactive) | > 100 µM (inactive) | > 100 µM (inactive) | > 100 µM (inactive) | – | > 100 µM (inactive) | > 100 µM (inactive) | > 100 µM (inactive) | > 100 µM (inactive) | > 100 µM (inactive) | > 100 µM (inactive) |
